We go through 47 compounds from patent publication US8653087B2, “Pyrido [5, 4-D] pyrimidines as cell proliferation inhibitors” (Boehringer Ingelheim International GmbH, priority 2008, dated 2014).

This experiment has as its target B-Raf (V600E)-kinase (Homo sapiens (Human), UniProt P15056, V600E). Put plainly: Kinase test B-RAF (V600E). Type of experiment: biochemical. The conditions noted are these: B-RAF (V600E) kinase test, 250 μM ATP. A digest of the protocol:
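Read-out is DELFIA europium TRF of phospho-MEK (Ser217/221) on biotinylated MEK1 bound to streptavidin plates, IC50 from dose-response. Reaction ran 60 min at RT with 250 μM ATP, after a 24 h RT preincubation of compound with B-Raf (V600E) kinase, 5% DMSO final.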

Where only a bound is given, the exact number is not on record here.

Chain of B-Raf (V600E)-kinase (P15056 whole entry V600E): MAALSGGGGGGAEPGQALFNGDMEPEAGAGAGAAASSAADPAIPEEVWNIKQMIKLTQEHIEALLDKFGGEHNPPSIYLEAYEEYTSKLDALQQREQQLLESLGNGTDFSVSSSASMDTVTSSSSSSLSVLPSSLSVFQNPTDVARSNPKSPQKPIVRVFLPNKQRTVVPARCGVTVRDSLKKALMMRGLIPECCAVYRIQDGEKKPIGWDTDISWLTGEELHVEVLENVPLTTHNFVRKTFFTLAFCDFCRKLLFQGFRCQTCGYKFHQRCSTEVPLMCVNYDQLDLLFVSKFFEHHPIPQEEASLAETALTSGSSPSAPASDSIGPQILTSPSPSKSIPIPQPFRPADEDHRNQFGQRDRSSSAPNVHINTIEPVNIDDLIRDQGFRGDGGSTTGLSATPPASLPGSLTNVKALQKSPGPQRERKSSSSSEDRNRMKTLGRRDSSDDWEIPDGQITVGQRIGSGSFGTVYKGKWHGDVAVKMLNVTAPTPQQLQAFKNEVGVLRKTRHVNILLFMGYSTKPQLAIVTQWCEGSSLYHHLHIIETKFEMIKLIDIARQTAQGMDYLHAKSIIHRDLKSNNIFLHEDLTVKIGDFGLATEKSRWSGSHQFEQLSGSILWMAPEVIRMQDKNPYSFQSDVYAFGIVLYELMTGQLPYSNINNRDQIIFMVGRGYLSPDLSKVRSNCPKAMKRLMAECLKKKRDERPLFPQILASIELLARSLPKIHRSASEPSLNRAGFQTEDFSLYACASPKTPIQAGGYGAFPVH

Regarding `COc1c(CNC(C)C)cc(C(F)(F)F)cc1NC(=O)c1ccc(C)c(Nc2ncnc3cnc(N4CCOCC4)nc23)c1` [III-540], the IC50 – broadly, the concentration needed to halve the response being measured – was 5 nM. That is a single-digit nanomolar value.
As for `COc1c(CN2CCCC2)cc(C(F)(F)F)cc1NC(=O)c1ccc(C)c(Nc2ncnc3cnc(N4CC[C@H](F)C4)nc23)c1` [III-541], the figure is 15 nM; as for `COc1c(CNC(C)C)cc(C(F)(F)F)cc1NC(=O)c1ccc(C)c(Nc2ncnc3cnc(N4CC[C@H](F)C4)nc23)c1` [III-542], 12 nM.
As for `COc1ccc(NC(=O)c2ccc(C)c(Nc3ncnc4cnc(N(C)CC5CCCO5)nc34)c2)cc1C(F)(F)F` (centres unmarked) [III-543], the figure is 3 nM; as for `COc1ccc(NC(=O)c2ccc(C)c(Nc3ncnc4cnc(NCC5CCCCO5)nc34)c2)cc1C(F)(F)F` (centres unmarked) [III-544], 1 nM; as for `COC[C@@H]1CCCN1c1ncc2ncnc(Nc3cc(C(=O)Nc4ccc(OC)c(C(F)(F)F)c4)ccc3C)c2n1` [III-545], 2 nM.
As for `COc1ccc(NC(=O)c2ccc(C)c(Nc3ncnc4cnc(N5CCC[C@H]5CO)nc34)c2)cc1C(F)(F)F` [III-546], the figure is 4 nM.
Turning to `COc1ccc(NC(=O)c2ccc(C)c(Nc3ncnc4cnc(NCC(C)C)nc34)c2)cc1C(F)(F)F` [III-547], the IC50 was less than 1 nM.
As for `COc1ccc(NC(=O)c2ccc(C)c(Nc3ncnc4cnc(N(C)C5CCOC5)nc34)c2)cc1C(F)(F)F` (centres unmarked) [III-548], the figure is 3 nM; as for `COc1ccc(NC(=O)c2ccc(C)c(Nc3ncnc4cnc(-n5cnc(C)c5)nc34)c2)cc1C(F)(F)F` [III-549], 8 nM.
`COc1ccc(NC(=O)c2ccc(C)c(Nc3ncnc4cnc(N5C[C@@H](C)O[C@@H](C)C5)nc34)c2)cc1C(F)(F)F` [III-550]: the IC50 is 4 nM. This IC50 lies about 2-fold lower than the previous one.
Then `COc1ccc(NC(=O)c2ccc(C)c(Nc3ncnc4cnc(N5CCCOCC5)nc34)c2)cc1C(F)(F)F` [III-551], with 1 nM; and `COc1ccc(NC(=O)c2ccc(C)c(Nc3ncnc4cnc(N5CCN(CCN6CCOCC6)CC5)nc34)c2)cc1C(F)(F)F` [III-552], with 17 nM.
`COc1ccc(NC(=O)c2ccc(C)c(Nc3ncnc4cnc(N5CCN(CCCN6CCCC6)CC5)nc34)c2)cc1C(F)(F)F` [III-553]: the IC50 was found to be 2 nM.
Regarding `COc1ccc(NC(=O)c2ccc(C)c(Nc3ncnc4cnc(N5CCN(CC6CCCN(C)C6)CC5)nc34)c2)cc1C(F)(F)F` (centres unmarked) [III-554], the IC50 is 3 nM.
Consider `COc1ccc(NC(=O)c2ccc(C)c(Nc3ncnc4cnc(N5CCN6CCCCC6C5)nc34)c2)cc1C(F)(F)F` (centres unmarked) [III-555], for which the IC50 stood at 18 nM.
Then `COc1ccc(NC(=O)c2ccc(C)c(Nc3ncnc4cnc(N5CCC(N6CCCCC6)CC5)nc34)c2)cc1C(F)(F)F` [III-556], with 7 nM; and `COc1ccc(NC(=O)c2ccc(C)c(Nc3ncnc4cnc(N5CCN(C6CCN(C)CC6)CC5)nc34)c2)cc1C(F)(F)F` [III-557], with 4 nM; and `COc1ccc(NC(=O)c2ccc(C)c(Nc3ncnc4cnc(N5CCC(N6CCOCC6)CC5)nc34)c2)cc1C(F)(F)F` [III-558], with 23 nM.
As for `COc1ccc(NC(=O)c2ccc(C)c(Nc3ncnc4cnc(N5CCC(N6C[C@@H](C)O[C@@H](C)C6)CC5)nc34)c2)cc1C(F)(F)F` [III-559], the figure is 14 nM; as for `COc1ccc(NC(=O)c2ccc(C)c(Nc3ncnc4cnc(N5CCC(N6CCCC6)CC5)nc34)c2)cc1C(F)(F)F` [III-560], 7 nM; as for `CCN1CCN(c2ncc3ncnc(Nc4cc(C(=O)Nc5ccc(OC)c(C(F)(F)F)c5)ccc4C)c3n2)CC1` [III-561], 9 nM.
Compound `COc1ncc2ncnc(Nc3cc(C(=O)Nc4cc(C(C)(C)C)nn4C)ccc3C)c2n1` [III-565] registered an IC50 of 11 nM.
Then `COc1ncc2ncnc(Nc3cc(C(=O)Nc4cc(N5CCN(C(C)C)CC5)cc(C(F)(F)F)c4)ccc3C)c2n1` [III-567], with 2 nM; and `COc1ncc2ncnc(Nc3cc(C(=O)Nc4cccc(C(F)(F)F)c4)ccc3C)c2n1` [III-568], with 1 nM; and `COc1ncc2ncnc(Nc3cc(C(=O)Nc4ccc(OC)c(C(F)(F)F)c4)ccc3C)c2n1` [III-569], with 2 nM.
As for `COc1ncc2ncnc(Nc3cc(C(=O)Nc4cccc(C(C)(C)C)c4)ccc3C)c2n1` [III-570], the figure is less than 1 nM; as for `COc1ncc2ncnc(Nc3cc(C(=O)Nc4cc(N(C)CCN(C)C)cc(C(F)(F)F)c4)ccc3C)c2n1` [III-571], 2 nM; as for `COc1ncc2ncnc(Nc3cc(C(=O)Nc4cc(CN5CCCC5)cc(C(F)(F)F)c4)ccc3C)c2n1` [III-572], 1 nM.
As for `COc1ncc2ncnc(Nc3cc(C(=O)Nc4cc(C(C)(C)C)n[nH]4)ccc3C)c2n1` [III-575], the figure is 3 nM; as for `COc1ncc2ncnc(Nc3cc(C(=O)Nc4cc(C(C)(C)C)on4)ccc3C)c2n1` [III-577], 2 nM; as for `Cc1ccc(C(=O)Nc2cc(C(C)(C)C)on2)cc1N(C)c1ncnc2cnc(N3CCOCC3)nc12` [III-580], 28 nM.
Consider `Cc1ccc(C(=O)Nc2cc(C(C)(C)C)on2)cc1N(C)c1ncnc2cnc(NC3CCOC3)nc12` (centres unmarked) [III-581], for which half-maximal inhibition (IC50) was put at 33 nM.
As for `COCCN1CCN(c2ncc3ncnc(N(C)c4cc(C(=O)Nc5cc(C(C)(C)C)on5)ccc4C)c3n2)CC1` [III-582], the figure is 74 nM; as for `Cc1ccc(C(=O)Nc2cc(C(C)(C)C)on2)cc1N(C)c1ncnc2cnc(N3CC[C@H](F)C3)nc12` [III-583], 32 nM.
For the compound `COc1ccc(NC(=O)c2ccc(C)c(N(C)c3ncnc4cnc(N5CCOCC5)nc34)c2)cc1C(F)(F)F` [III-584], half-maximal inhibition (IC50) required 18 nM. This IC50 is about 1.8-fold lower than that of the compound before.
For `COc1ccc(NC(=O)c2ccc(C)c(N(C)c3ncnc4cnc(NC5CCOC5)nc34)c2)cc1C(F)(F)F` (centres unmarked) [III-585], the IC50 turned out to be 27 nM.
Then `COCCN1CCN(c2ncc3ncnc(N(C)c4cc(C(=O)Nc5ccc(OC)c(C(F)(F)F)c5)ccc4C)c3n2)CC1` [III-586], with 193 nM; and `COc1ccc(NC(=O)c2ccc(C)c(N(C)c3ncnc4cnc(N5CC[C@H](F)C5)nc34)c2)cc1C(F)(F)F` [III-587], with 65 nM; and `Cc1ccc(C(=O)Nc2cc(C(C)(C)C)nn2C)cc1Oc1ncnc2cnc(N3CCOCC3)nc12` [III-591], with 1 nM.
Then `Cc1ccc(C(=O)Nc2cc(C(C)(C)C)on2)cc1Nc1ncnc2cnc(NC3CC(N4CCN(C)CC4)C3)nc12` (centres unmarked) [III-592], with less than 1 nM; and `COc1ccc(NC(=O)c2ccc(C)c(Nc3ncnc4cnc(NC5CC(N6CCN(C)CC6)C5)nc34)c2)cc1C(F)(F)F` (centres unmarked) [III-593], with 1 nM; and `COCCN1CCC(Nc2ncc3ncnc(Nc4cc(C(=O)Nc5cc(C(C)(C)C)on5)ccc4C)c3n2)CC1` [III-594], with 1 nM.
For the compound `Cc1ccc(C(=O)Nc2ccnc(C(C)(C)C)c2)cc1Nc1ncnc2cnc(NC3CCN(C)CC3)nc12` [III-595], inhibition was half-maximal at 1 nM (IC50).
Take `Cc1ccc(C(=O)Nc2cc(C(C)(C)C)on2)cc1Nc1ncnc2cnc(N(C)C3CC(N4CCN(C)CC4)C3)nc12` (centres unmarked) [III-596]: the IC50 worked out at 2 nM. This IC50 lies about 2-fold higher than the previous one.
As for `Cc1ccc(C(=O)Nc2ccnc(C(C)(C)C)c2)cc1Nc1ncnc2cnc(N(C)C3CC(N4CCN(C)CC4)C3)nc12` (centres unmarked) [III-597], the figure is 5 nM; as for `Cc1ccc(C(=O)Nc2cc(C(C)(C)C)on2)cc1Nc1ncnc2cnc(NCCCN(C)C)nc12` [III-598], less than 1 nM.
